Measured values published in publication PMC7077276 (Viruses, 2020).
“Also recorded” adds a separate entry of the source.

Columns and labels:
[1] = molecular target: T1, PCV2 dcapsid bound to Heparin-Sepharose (Porcine circovirus 2, UniProt O56129); experiment: Heparin column chromatography (competitive elution of dcapsid); type: binding, porcine circovirus type 2 (PCV2)
T1 construct: hexahistidine (N); made in house; host or cells: Escherichia coli BL21 (DE3)

[2] = molecular target: T2, PCV2 capsid protein (dcapsid) (Porcine circovirus 2, UniProt O56129); experiment: Microscale thermophoresis assay (MST), wild-type dcapsid; type: binding, porcine circovirus type 2 (PCV2)
T2 construct: hexahistidine (N); made in house; host or cells: Escherichia coli BL21 (DE3)
T2 sequence (O56129 42-233): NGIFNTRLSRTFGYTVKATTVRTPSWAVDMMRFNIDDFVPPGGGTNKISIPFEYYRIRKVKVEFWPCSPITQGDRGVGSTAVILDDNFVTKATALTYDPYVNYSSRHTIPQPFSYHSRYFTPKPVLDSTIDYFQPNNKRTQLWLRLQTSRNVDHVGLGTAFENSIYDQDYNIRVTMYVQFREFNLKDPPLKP

PCV2 [3] = experiment: Infectivity assay (titer, immunoblotting, qPCR, IFA); type: cell-based, porcine circovirus type 2 (PCV2); conditions: for anti-infective (antiviral) effect on PCV2: PK-15 cells, MOI = 1.0
PCV2 dcapsid mutant D78A = molecular target: T3, PCV2 dcapsid mutant D78A (Porcine circovirus 2, UniProt O56129, D78A); experiment: Microscale thermophoresis assay (MST), dcapsid mutant D78A; type: binding, porcine circovirus type 2 (PCV2); conditions: read-out: Kd between EGCG and capsid mutant D78A
T3 construct: hexahistidine (N); made in house; host or cells: Escherichia coli BL21 (DE3)
T3 sequence (O56129 42-233 D78A): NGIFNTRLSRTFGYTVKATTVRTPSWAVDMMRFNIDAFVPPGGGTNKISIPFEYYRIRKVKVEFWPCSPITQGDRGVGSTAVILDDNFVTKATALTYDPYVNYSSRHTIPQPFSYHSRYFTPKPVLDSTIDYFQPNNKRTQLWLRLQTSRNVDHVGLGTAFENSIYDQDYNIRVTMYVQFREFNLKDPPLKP

PK-15 cells = experiment: Cytotoxicity assay (CCK8); type: cell-based, Porcine
[4] = system: PCV2 dcapsid mutants bound to heparin column; experiment: Heparin column chromatography of dcapsid mutants; type: binding, porcine circovirus type 2 (PCV2)
PCV2 dcapsid mutant D70A = molecular target: T4, PCV2 dcapsid mutant D70A (Porcine circovirus 2, UniProt O56129, D70A); experiment: Microscale thermophoresis assay (MST), dcapsid mutant D70A; type: binding, porcine circovirus type 2 (PCV2); conditions: read-out: Kd between EGCG and capsid mutant D70A
T4 construct: hexahistidine (N); made in house; host or cells: Escherichia coli BL21 (DE3)
T4 sequence (O56129 42-233 D70A): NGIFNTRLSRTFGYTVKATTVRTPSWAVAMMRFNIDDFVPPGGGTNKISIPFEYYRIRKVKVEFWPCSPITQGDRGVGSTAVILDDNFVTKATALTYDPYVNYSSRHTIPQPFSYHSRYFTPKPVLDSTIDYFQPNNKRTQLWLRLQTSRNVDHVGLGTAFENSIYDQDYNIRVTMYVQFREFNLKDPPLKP

PCV2 mutant viruses = experiment: Infectivity assay of rescued PCV2 mutant viruses; type: cell-based, porcine circovirus type 2 (PCV2); conditions: 100 μM, whole infective process, titers at 72 hpi
PCV2 [5] = experiment: Time of addition and dilution experiment; type: cell-based, porcine circovirus type 2 (PCV2); conditions: for inhibitory effect of post-infection treatment: immunoblotting at 72 hpi
PCV2 dcapsid mutant G54A = molecular target: T5, PCV2 dcapsid mutant G54A (Porcine circovirus 2, UniProt O56129, G54A); experiment: Microscale thermophoresis assay (MST), dcapsid mutant G54A; type: binding, porcine circovirus type 2 (PCV2); conditions: read-out: Kd between EGCG and capsid mutant G54A
T5 construct: hexahistidine (N); made in house; host or cells: Escherichia coli BL21 (DE3)
T5 sequence (O56129 42-233 G54A): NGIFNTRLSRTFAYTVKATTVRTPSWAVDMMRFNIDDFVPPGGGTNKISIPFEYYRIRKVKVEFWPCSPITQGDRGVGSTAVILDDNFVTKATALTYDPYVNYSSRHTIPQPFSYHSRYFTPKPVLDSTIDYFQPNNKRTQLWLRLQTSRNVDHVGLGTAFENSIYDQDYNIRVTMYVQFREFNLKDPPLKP

PCV2 virions = experiment: Binding assay of virions to PK-15 cells (qPCR, flow cytometry); type: cell-based, porcine circovirus type 2 (PCV2); conditions: 100 μM, binding 1 h at 4 °C, MOI = 5.0
PCV2 dcapsid mutant N75A = molecular target: T6, PCV2 dcapsid mutant N75A (Porcine circovirus 2, UniProt O56129, N75A); experiment: Microscale thermophoresis assay (MST), dcapsid mutant N75A; type: binding, porcine circovirus type 2 (PCV2); conditions: read-out: Kd between EGCG and capsid mutant N75A
T6 construct: hexahistidine (N); made in house; host or cells: Escherichia coli BL21 (DE3)
T6 sequence (O56129 42-233 N75A): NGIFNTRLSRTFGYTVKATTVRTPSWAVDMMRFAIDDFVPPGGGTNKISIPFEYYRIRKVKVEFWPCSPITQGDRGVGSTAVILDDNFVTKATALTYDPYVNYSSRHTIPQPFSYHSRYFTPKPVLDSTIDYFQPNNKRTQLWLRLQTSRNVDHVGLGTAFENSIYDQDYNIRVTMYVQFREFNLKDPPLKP

PCV2 dcapsid mutant R51A = molecular target: T7, PCV2 dcapsid mutant R51A (Porcine circovirus 2, UniProt O56129, R51A); experiment: Microscale thermophoresis assay (MST), dcapsid mutant R51A; type: binding, porcine circovirus type 2 (PCV2); conditions: read-out: Kd between EGCG and capsid mutant R51A
T7 construct: hexahistidine (N); made in house; host or cells: Escherichia coli BL21 (DE3)
T7 sequence (O56129 42-233 R51A): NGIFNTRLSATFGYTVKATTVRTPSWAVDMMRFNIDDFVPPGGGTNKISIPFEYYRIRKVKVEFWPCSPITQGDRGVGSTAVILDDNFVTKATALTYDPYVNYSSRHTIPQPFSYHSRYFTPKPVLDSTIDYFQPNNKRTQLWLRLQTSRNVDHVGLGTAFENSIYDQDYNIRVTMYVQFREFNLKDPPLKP

PCV2 dcapsid mutant R73A = molecular target: T8, PCV2 dcapsid mutant R73A (Porcine circovirus 2, UniProt O56129, R73A); experiment: Microscale thermophoresis assay (MST), dcapsid mutant R73A; type: binding, porcine circovirus type 2 (PCV2); conditions: read-out: Kd between EGCG and capsid mutant R73A
T8 construct: hexahistidine (N); made in house; host or cells: Escherichia coli BL21 (DE3)
T8 sequence (O56129 42-233 R73A): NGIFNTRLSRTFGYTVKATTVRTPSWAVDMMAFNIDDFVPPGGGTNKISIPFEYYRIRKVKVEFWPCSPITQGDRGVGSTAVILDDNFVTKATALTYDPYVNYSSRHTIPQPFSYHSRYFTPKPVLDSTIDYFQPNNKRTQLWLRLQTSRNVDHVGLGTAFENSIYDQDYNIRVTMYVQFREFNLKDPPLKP

T1 sequence (O56129 42-233): as the sequence (O56129 42-233) above

Molecule: Oc1cc(O)c2c(c1)O[C@H](c1ccc(O)c(O)c1)[C@H](O)C2 [EC, epicatechin, reference compound]
- dcapsid protein fraction eluted from heparin column ([1]; competitor 0.05 mg/mL): 10.33 ± 4.50%
- Kd [2]: 951.3 ± 6.81 µM
- lower affinity to capsid than EGCG ([2]; MST, ratio of Kd): 10 fold
- anti-infective (antiviral) effect on PCV2 (PCV2 [3]; 100 μM): no considerable anti-infective effect; also recorded: did not exert an antiviral effect

Molecule: O=C(O[C@@H]1Cc2c(O)cc(O)cc2O[C@@H]1c1cc(O)c(O)c(O)c1)c1cc(O)c(O)c(O)c1 [EGCG, Epigallocatechin gallate]
- Kd (PCV2 dcapsid mutant D78A): 1061 ± 8.08 µM
- cytotoxicity to PK-15 cells (PK-15 cells; 100 μM, 24 h, 72 h and 120 h): did not generate significant cytotoxicity; also recorded: without causing significant toxicity
- cytotoxicity to PK-15 cells (PK-15 cells; 200 μM): could produce cytotoxicity
- eluted level of R51A, D70A, R73A and D78A mutants ([4]; 0.5 mg/mL EGCG, especially D70A and D78A): remarkably reduced
- Kd (PCV2 dcapsid mutant D70A): 863.7 ± 7.23 µM
- antiviral effect on PCV2 (D70A) and PCV2 (D78A) (PCV2 mutant viruses): could not be detected
- antiviral effect on PCV2 (G54A), PCV2 (N75A), PCV2 (WT) and PCV2 (A135A) (PCV2 mutant viruses): could inhibit the infectivity
- inhibitory effect of post-infection treatment (PCV2 [5]; 100 μM for 4 h or 12 h after PCV2 infection): significant inhibitory effect could not be detected
- inhibitory effect of post-infection treatment (PCV2 [5]; 100 μM for 24 h after PCV2 infection): only a slight effect
- inhibitory effect, pre-treated cells group (PCV2 [5]; cells pre-exposed 60 min at 37 °C, then infected, 72 hpi, immunoblotting, qPCR, titer): inhibitory effect could not be detected
- antiviral effect in dilution assay (PCV2 [5]; virions pretreated with 100 μM, diluted 10-fold before inoculation, immunoblotting, qPCR, titer): antiviral effect could still be detected
- antiviral effect, pre-treated virions group (PCV2 [5]; virus premixed with 10 μM, 72 hpi): non-sensitive
- antiviral effect, pre-treated virions group (PCV2 [5]; virus premixed with 100 μM, 72 hpi): prominent antiviral effect
- Kd (PCV2 dcapsid mutant G54A): 99.3 ± 9.29 µM
- bound PCV2 particles (qRT-PCR) (PCV2 virions): decrease significantly
- proportion of PCV2-attached cells (flow cytometry) (PCV2 virions; untreated ~70%): ~ 55%
- dcapsid protein fraction eluted from heparin column ([1]; competitor 0.05 mg/mL): 42.33 ± 3.52%
- dcapsid protein fraction eluted from heparin column ([1]; competitor 0.5 mg/mL): 90.00 ± 5.29%
- Kd (PCV2 dcapsid mutant N75A): 164 ± 5.29 µM
- Kd (PCV2 dcapsid mutant R51A): 591 ± 5.57 µM
- Kd (PCV2 dcapsid mutant R73A): 971 ± 9.54 µM
- Kd [2]: 98 ± 4.76 µM
- inhibitory effect of PCV2 infection (immunoblotting, qPCR) (PCV2 [3]; 10 μM, 72 hpi): still detectable
- viral capsid protein expression (immunoblotting) (PCV2 [3]; 100 μM, 72 hpi): reduced level
- viral genome copy number (qPCR) (PCV2 [3]; 100 μM, 72 hpi): reduction
- quantity of PCV2 infected cells (IFA) (PCV2 [3]; 100 μM, MOI = 1.0, vs. without treatment): obviously lower
- anti-infective (antiviral) effect on PCV2 (PCV2 [3]; 100 μM): exhibited an inhibitory effect
- virus titer of PCV2 infected cells (PCV2 [3]; 100 μM, whole infective process, various time points, vs. without treatment): significant decrease

Molecule: heparin [reference compound]
- eluted level of R51A and R73A mutants ([4]; 0.5 mg/mL heparin): most significant eluted reduction
